Assays:
[1] = test system: cotton; assay: Test C postemergence cotton; type: in vivo, Gossypium hirsutum; conditions: 0 to 100 scale, 0 no effect, 100 complete control
Protocol: (§1) Compounds evaluated in this test were formulated in a non-phytotoxic solvent mixture which included a surfactant and applied to plants that were grown for various periods of time before treatment (postemergence application). A mixture of sandy loam soil and greenhouse potting mix in a 60:40 ratio was used for the postemergence test.
(§2) Plantings of these crops and weed species were adjusted to produce plants of appropriate size for the postemergence test. All plant species were grown using normal greenhouse practices. Crop and weed species include arrowleaf sida (Sida rhombifolia), barnyardgrass (Echinochloa crus-galli), cocklebur (Xanthium strumarium), common ragweed (Ambrosia elatior), corn (Zea mays), cotton (Gossypium hirsutum), eastern black nightshade (Solanum ptycanthum), fall panicum (Panicum dichotomiflorum), field bindweed (Convolvulus arvensis), giant foxtail (Setaria faberii), hairy beggarticks (Bidens pilosa), ivyleaf morningglory (Ipomoea hederacea), johnsongrass (Sorghum halepense), ladysthumb smartweed (Polygonum persicaria), lambsquarters (Chenopodium album), large crabgrass (Digitaria sanguinalis), purple nutsedge (Cyperus rotundus), redroot pigweed (Amaranthus retroflexus), soybean (Glycine max), surinam grass (Brachiaria decumbens), velvetleaf (Abutilon theophrasti) and wild poinsettia (Euphorbia heterophylla).
(§3) Treated plants and untreated controls were maintained in a greenhouse for approximately 14, to 21 days, after which all treated plants were compared to untreated controls and visually evaluated. Plant response ratings, summarized in Table C, were based upon a 0 to 100 scale where 0 was no effect and 100 was complete control. A dash response (−) means no test result.

[2] = test system: purple nutsedge; assay: Test C postemergence purple nutsedge; type: in vivo, Cyperus rotundus; conditions: 0 to 100 scale, 0 no effect, 100 complete control
Procedure, shortened: (§4)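 Scores (0 = no effect, 100 = complete control) come from visual comparison with untreated controls after about 14–21 days. Spray formulation was a non-phytotoxic solvent mixture including surfactant; plants grew in a 60:40 sandy loam–potting mix blend.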

[3] = test system: wild poinsettia; assay: Test C postemergence wild poinsettia; type: in vivo, Euphorbia heterophylla; conditions: 0 to 100 scale, 0 no effect, 100 complete control
Protocol: as §1, §2, §3

[4] = test system: surinam grass; assay: Test C postemergence surinam grass; type: in vivo, Brachiaria decumbens; conditions: 0 to 100 scale, 0 no effect, 100 complete control
Protocol: as §1, §2, §3

[5] = test system: soybean; assay: Test C postemergence soybean; type: in vivo, Glycine max; conditions: 0 to 100 scale, 0 no effect, 100 complete control
Protocol: as §1, §2, §3

[6] = test system: ivyleaf morningglory; assay: Test C postemergence ivyleaf morningglory; type: in vivo, Ipomoea hederacea; conditions: 0 to 100 scale, 0 no effect, 100 complete control
Protocol: as §1, §2, §3

[7] = test system: giant foxtail; assay: Test C postemergence giant foxtail; type: in vivo, Setaria faberii; conditions: 0 to 100 scale, 0 no effect, 100 complete control
Procedure, shortened: as §4

[8] = test system: large crabgrass; assay: Test C postemergence large crabgrass; type: in vivo, Digitaria sanguinalis; conditions: 0 to 100 scale, 0 no effect, 100 complete control
Protocol: as §1, §2, §3

[9] = test system: barnyardgrass; assay: Test C postemergence barnyardgrass; type: in vivo, Echinochloa crus-galli; conditions: 0 to 100 scale, 0 no effect, 100 complete control
Procedure, shortened: as §4

[10] = test system: corn; assay: Test C postemergence corn; type: in vivo, Zea mays; conditions: 0 to 100 scale, 0 no effect, 100 complete control
Procedure, shortened: as §4

[11] = test system: cocklebur; assay: Test C postemergence cocklebur; type: in vivo, Xanthium strumarium; conditions: 0 to 100 scale, 0 no effect, 100 complete control
Protocol: as §1, §2, §3

[12] = test system: velvetleaf; assay: Test A velvetleaf; type: in vivo, Abutilon theophrasti; conditions: 0 to 10 scale where 0 is no effect and 10 is complete control
Procedure, shortened: (§5)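 Injury scored visually after about eleven greenhouse days against untreated plants, 0 = no effect, 10 = complete control. Compounds, formulated in surfactant-containing non-phytotoxic solvent, were applied as preemergence soil drench to sandy loam plantings and as postemergence runoff spray at the 1–2 leaf stage.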

[13] = test system: crabgrass; assay: Test A crabgrass; type: in vivo, Digitaria spp.; conditions: 0 to 10 scale where 0 is no effect and 10 is complete control
Procedure, shortened: as §5

[14] = test system: ladysthumb smartweed; assay: Test C postemergence ladysthumb smartweed; type: in vivo, Polygonum persicaria; conditions: 0 to 100 scale, 0 no effect, 100 complete control
Protocol: as §1, §2, §3

[15] = test system: Green foxtail; assay: Test D green foxtail; type: in vivo; conditions: Rate 500 g/ha; Preemergence; 0 to 100 scale
Text: Seeds, tubers, or plant parts of Alexandergrass (Brachiaria plantaginea), bermuda-grass (Cynodon dactylon), common pursiane (Portulaca oleracea), common ragweed (Ambrosia elatior), common groundsel (Senecio vulgaris), dallisgrass (Paspalum dilatatum), goosegrass (Eleusine indica), guineagrass (Panicum maximum), itchgrass (Rottboellia exaltata), Johnson grass (Sorghum halepense), large crabgrass (Digitaria sanguinalis), pitted morningglory (Ipomoea lacunosa), purple nutsedge (Cyperus rotundus), sandbur (Cenchrus echinatus), sourgrass (Trichachne insularis), Spanishneedles (Bidens bipinnata), surinam grass (Brachiaria decumbens) and tall mallow (Malva sylvestris) were planted into greenhouse pots of flats containing greenhouse planting medium. Plant species were grown in separate pots or individual compartments. Preemergence applications were made within one day of planting the seed or plant part.
Test chemicals were formulated in a non-phytotoxic solvent mixture which included a surfactant and applied preemergence to the surface of the pot containing seeds in a sandy loam soil. Untreated control pots and treated pots were placed in the greenhouse for growth and visually evaluated for injury 14 to 21 days after herbicide application. Plant response ratings, summarized in Table C, are based on a 0 to 100 scale where 0 is no injury and 100 is complete control. A dash (−) response means no test result.

Cc1ccc(N(C(=O)n2oc(=O)n(C(C)C)c2=O)C(C)C)cc1 [Compound 132]
Plant response rating Cotton ([1]; Rate 140 g/ha): 5 | Plant response rating Cotton ([1]; Rate 280 g/ha): 10 | Plant response rating Cotton ([1]; Rate 560 g/ha): 20 | Plant response rating Cotton ([1]; Rate 1120 g/ha): 40 | Plant response rating, Purple nutsedge ([2]; Rate 140 g/ha): 0 | Plant response rating, Purple nutsedge ([2]; Rate 280 g/ha): 0 | Plant response rating, Purple nutsedge ([2]; Rate 560 g/ha): 0 | Plant response rating, Purple nutsedge ([2]; Rate 1120 g/ha): 0 | Plant response rating Wild poinsettia ([3]; Rate 140 g/ha): 0 | Plant response rating Wild poinsettia ([3]; Rate 280 g/ha): 0 | Plant response rating Wild poinsettia ([3]; Rate 560 g/ha): 0 | Plant response rating Wild poinsettia ([3]; Rate 1120 g/ha): 0 | Plant response rating Surinam grass ([4]; Rate 140 g/ha): 0 | Plant response rating Surinam grass ([4]; Rate 280 g/ha): 0 | Plant response rating Surinam grass ([4]; Rate 560 g/ha): 0 | Plant response rating Surinam grass ([4]; Rate 1120 g/ha): 30 | Plant response rating, Soybean ([5]; Rate 140 g/ha): 5 | Plant response rating, Soybean ([5]; Rate 280 g/ha): 20 | Plant response rating, Soybean ([5]; Rate 560 g/ha): 30 | Plant response rating, Soybean ([5]; Rate 1120 g/ha): 40 | Plant response rating I. morningglory ([6]; Rate 140 g/ha): 0 | Plant response rating I. morningglory ([6]; Rate 280 g/ha): 0 | Plant response rating I. morningglory ([6]; Rate 560 g/ha): 0 | Plant response rating I. morningglory ([6]; Rate 1120 g/ha): 0 | Plant response rating, Giant foxtail ([7]; Rate 140 g/ha): 0 | Plant response rating, Giant foxtail ([7]; Rate 280 g/ha): 0 | Plant response rating, Giant foxtail ([7]; Rate 560 g/ha): 0 | Plant response rating, Giant foxtail ([7]; Rate 1120 g/ha): 0 | Plant response rating Large crabgrass ([8]; Rate 140 g/ha): 0 | Plant response rating Large crabgrass ([8]; Rate 280 g/ha): 10 | Plant response rating Large crabgrass ([8]; Rate 560 g/ha): 40 | Plant response rating Large crabgrass ([8]; Rate 1120 g/ha): 80 | Plant response rating, Barnyardgrass ([9]; Rate 140 g/ha): 50 | Plant response rating, Barnyardgrass ([9]; Rate 280 g/ha): 50 | Plant response rating, Barnyardgrass ([9]; Rate 560 g/ha): 80 | Plant response rating, Barnyardgrass ([9]; Rate 1120 g/ha): 95 | Plant response rating, Corn ([10]; Rate 140 g/ha): 0 | Plant response rating, Corn ([10]; Rate 280 g/ha): 0 | Plant response rating, Corn ([10]; Rate 560 g/ha): 0 | Plant response rating, Corn ([10]; Rate 1120 g/ha): 10 | Plant response rating, Cocklebur ([11]; Rate 140 g/ha): 0 | Plant response rating, Cocklebur ([11]; Rate 280 g/ha): 0 | Plant response rating, Cocklebur ([11]; Rate 560 g/ha): 0 | Plant response rating, Cocklebur ([11]; Rate 1120 g/ha): 0

CC(C)N(C(=O)n1oc(=O)n(C2CCCC(C(F)(F)F)C2)c1=O)c1ccc(F)cc1 (centres unmarked) [Compound 184]
Plant response rating, Velvetleaf ([12]; Postemergence, Rate 1000 g/ha): 2 | Plant response rating, Velvetleaf ([12]; Pre-emergence, Rate 2000 g/ha): 0 | Plant response rating, Crabgrass ([13]; Postemergence, Rate 1000 g/ha): 1 | Plant response rating, Crabgrass ([13]; Pre-emergence, Rate 2000 g/ha): 9

CCN(C(=O)n1oc(=O)n(N(C)c2ccccc2)c1=O)C1CCCCC1 [Compound 183]
Plant response rating, Velvetleaf ([12]; Postemergence, Rate 1000 g/ha): 0 | Plant response rating, Velvetleaf ([12]; Pre-emergence, Rate 2000 g/ha): 0 | Plant response rating, Crabgrass ([13]; Postemergence, Rate 1000 g/ha): 1 | Plant response rating, Crabgrass ([13]; Pre-emergence, Rate 2000 g/ha): 5

CC(C)N(C(=O)n1oc(=O)n(Cc2ccccc2)c1=O)c1ccccc1 [Compound 94]
Plant response rating Cotton ([1]; Rate 140 g/ha): 20 | Plant response rating Cotton ([1]; Rate 280 g/ha): 70 | Plant response rating Cotton ([1]; Rate 560 g/ha): 70 | Plant response rating Cotton ([1]; Rate 1120 g/ha): 80 | Plant response rating, Purple nutsedge ([2]; Rate 140 g/ha): 0 | Plant response rating, Purple nutsedge ([2]; Rate 280 g/ha): 0 | Plant response rating, Purple nutsedge ([2]; Rate 560 g/ha): 0 | Plant response rating, Purple nutsedge ([2]; Rate 1120 g/ha): 0 | Plant response rating Wild poinsettia ([3]; Rate 140 g/ha): 0 | Plant response rating Wild poinsettia ([3]; Rate 280 g/ha): 0 | Plant response rating Wild poinsettia ([3]; Rate 560 g/ha): 60 | Plant response rating Wild poinsettia ([3]; Rate 1120 g/ha): 85 | Plant response rating Surinam grass ([4]; Rate 140 g/ha): 0 | Plant response rating Surinam grass ([4]; Rate 280 g/ha): 0 | Plant response rating Surinam grass ([4]; Rate 560 g/ha): 0 | Plant response rating Surinam grass ([4]; Rate 1120 g/ha): 10 | Plant response rating, Soybean ([5]; Rate 140 g/ha): 15 | Plant response rating, Soybean ([5]; Rate 280 g/ha): 15 | Plant response rating, Soybean ([5]; Rate 560 g/ha): 30 | Plant response rating, Soybean ([5]; Rate 1120 g/ha): 55 | Plant response rating I. morningglory ([6]; Rate 140 g/ha): 0 | Plant response rating I. morningglory ([6]; Rate 280 g/ha): 10 | Plant response rating I. morningglory ([6]; Rate 560 g/ha): 90 | Plant response rating Ladysthumb ([14]; Rate 140 g/ha): 5 | Plant response rating Ladysthumb ([14]; Rate 280 g/ha): 10 | Plant response rating Ladysthumb ([14]; Rate 560 g/ha): 85 | Plant response rating Ladysthumb ([14]; Rate 1120 g/ha): 90 | Plant response rating, Giant foxtail ([7]; Rate 140 g/ha): 0 | Plant response rating, Giant foxtail ([7]; Rate 280 g/ha): 0 | Plant response rating, Giant foxtail ([7]; Rate 560 g/ha): 10 | Plant response rating, Giant foxtail ([7]; Rate 1120 g/ha): 40 | Plant response rating Large crabgrass ([8]; Rate 140 g/ha): 0 | Plant response rating Large crabgrass ([8]; Rate 280 g/ha): 0 | Plant response rating Large crabgrass ([8]; Rate 560 g/ha): 70 | Plant response rating, Green foxtail [15]: 100 | Plant response rating, Barnyardgrass ([9]; Rate 140 g/ha): 0 | Plant response rating, Barnyardgrass ([9]; Rate 280 g/ha): 0 | Plant response rating, Barnyardgrass ([9]; Rate 560 g/ha): 30 | Plant response rating, Barnyardgrass ([9]; Rate 1120 g/ha): 65 | Plant response rating, Corn ([10]; Rate 140 g/ha): 0 | Plant response rating, Corn ([10]; Rate 280 g/ha): 0 | Plant response rating, Corn ([10]; Rate 560 g/ha): 0 | Plant response rating, Corn ([10]; Rate 1120 g/ha): 0 | Plant response rating, Cocklebur ([11]; Rate 140 g/ha): 0 | Plant response rating, Cocklebur ([11]; Rate 280 g/ha): 0

Cc1ccccc1-n1c(=O)on(C(=O)N(c2cc(OC(C)C)c(Cl)cc2Cl)C(C)C)c1=O [Compound 42]
Plant response rating, Velvetleaf ([12]; Postemergence, Rate 1000 g/ha): 0 | Plant response rating, Velvetleaf ([12]; Pre-emergence, Rate 2000 g/ha): 0 | Plant response rating, Crabgrass ([13]; Postemergence, Rate 1000 g/ha): 0 | Plant response rating, Crabgrass ([13]; Pre-emergence, Rate 2000 g/ha): 0
